The subject of test [1] is alloxan-treated cd-1 mice. In words: Alloxan induced beta cell destruction model (in vivo β-cell protection). The procedure:
In Vivo β-Cell Protection Model β-cell destruction was induced in cd-1 male mice after 3 hours of fasting by a single intra-peritoneal (i.p.) injection of a freshly prepared solution of alloxan 200 mg/kg (Sigma-Aldrich, San Luis, Mo.) that was dissolved in NaCl 0.9%. One single intra-peritoneal drug administration was given one hour before the Alloxan administration. […] At the end of the treatment, day 4, animals were sacrificed and the plasma collected and kept at −20° C. until used.
Pancreatic beta cell destruction was induced in the cd-1 mice after 3 hours of fasting by a single intraperitoneal injection of a freshly prepared solution of alloxan 200 mg/kg (Sigma-Aldrich, San Luis, Mo.) that was dissolved in NaCl 0.9%. Single drug intraperitoneal administration was 1 hour before the alloxan administration. […] The control group was injected with the vehicle, PBS at pH 7.4. Glycemia was measured on arterio-venous blood collected from the tail vessels between 9:00 and 10:00 am on day 0 (day of drug administration) to day 4.

For test [2], the system named is islets. Particulars: low-dose streptozotocin-induced insulitis; cited from earlier work.
The subject of test [3] is INS-1E β-cells. In words: In vitro INS-1E β-cell assay (apoptosis, caspase 3/7). The class given is cell-based. Particulars: apoptosis promoted by high (11 mM) glucose and high (0.4 mM) palmitate. As for the experimental part:
INS-1E β-cells were cultivated in the presence of a high glucose concentration (11 mM) and a high palmitate concentration (0.4 mM bound to BSA 0.5%) in order to promote glucotoxicity and lipotoxicity. […] The capacity of protecting β-cells with different combinations of antioxydants and anti-inflammatory agents were tested using these stressing conditions that reflect the pathophysiological conditions implicated in pancreatic dysfunction related to diabetes onset. INS-1E cells were seeded at a density of 80,000 cells/cm^2 in 96 wells plates 4 days before the beginning of the treatment. At 60-80% of confluence, cells were fasted with RPMI 5 mM of glucose+FBS 10%. […] The day after, fasting medium was changed by the stressing medium (glucose […]+palmitate 0.4 mM bound to BSA 0.5%). Medium, and tested agents when present, were changed every 24 h. 48 h after the addition of the stressing medium, apoptosis was measured with Apo-One Homogeneous Caspase 3/7 Assay (Promega) which determines the activity of caspase 3 and 7. […] Resulting fluorescence was read at 485/530 (excitation/emission wave length). The background apoptosis, in absence of stressing condition, was determined with INS 1E-cells cultured in the presence of fasting medium (RPMI 5 mM glucose+FBS 10%). […]

Test [4] concerns type II diabetes patients. Particulars: cited from earlier work.
Setting [5] is: type II diabetes patients, 4 grams/day.

As to `CC(=O)N[C@@H](CS)C(=O)O` [N-acetylcysteine], the glycemia result is listed as “significant reductions of glycemia were observed only at the highest administered concentrations” in test [1] (FIG. 3, NAC alone i.p. 0.38 and 0.75 mmol/kg); “not to affect glycemia” in test [1] (NAC alone 0.19 mmol/kg i.p.); “statistically-significant reductions in glycemia” in test [1] (NAC alone 0.38 mmol/kg). For the same compound, the insulinemia entry in test [1] (FIG. 3, NAC alone i.p., highest concentrations administered) is listed as “significantly increased”. Further, in test [2], the “protection of islets from immune destruction” value (“protection of islets” for short) is reported as “partially protect”.
On to `O=C([O-])c1ccccc1O.[Na+]` [Salicylate, Sodium Salicylate], for which the glycemia entry in test [1] (FIG. 3, salicylate alone i.p. 0.38, 0.75 and 1.5 mmol/kg) is listed as “significant reductions of glycemia were observed only at the highest administered concentrations”; in test [1] (sodium salicylate alone 0.38 mmol/kg i.p.), “not to affect glycemia”; in test [1] (sodium salicylate alone 0.75 mmol/kg) it was “statistically-significant reductions in glycemia”.
For `NCCS(=O)(=O)O` [Taurine], the “Combination concentrations (concentrations that reduced apoptosis)” value in test [3] was 3 mM.
As to `CC(=O)Oc1ccccc1C(=O)O` [aspirin], in test [4] (patients with diabetes, high dosage), the glucose levels result is “lower”.
On to `CC(=O)N(O)CCCCCNC(=O)CCC(=O)N(O)CCCCCNC(=O)CCC(=O)N(O)CCCCCN` [desferrioxamine], for which the “protection of islets” value in test [2] was “partially protect”.
Turning to `NC(=O)c1cccnc1` [nicotinamide], in test [2], the “protection of islets” value is “partially protect”.
As to `O=C(Oc1ccccc1C(=O)O)c1ccccc1O` [salsalate], in test [4] (setting [5]), the fasting glucose entry is “lowered” and the inflammation result is listed as “reduced”.
As for `Cc1c(C)c2c(c(C)c1O)CC[C@@](C)(CCC[C@H](C)CCC[C@H](C)CCCC(C)C)O2` [α-tocopherol], in test [3], the “Combination concentrations (concentrations that reduced apoptosis)” value turned out to be 1 mM.

(Values after US20140357602A1, “Combination Therapies For Treating Metabolic Disorders” (Genmedica Therapeutics SL, priority 2009, published 2014).)
